The source of these data is US12723024B2 (priority 2021, dated 2026).

Structures can show the parent of a compound that is named as a salt. Where two headings read alike, the source gives them in different places.

Series [1] can be described thus: Salt screening (slurry crystallization). The class given is physicochemical. Further details: key to Salt screening result: (+) shows that a crystalline salt was formed; (−) physical mixtures. The following applies: for Polymorph obtained in salt screening: XRPD; for Salt screening result: slurry 50° C. then 25° C. As to the method:
About 45 mg was added to a suitable solvent and different equivalents of acids were added under stirring at 50° C. for about 2 hours and then at 25° C. for at least 32 hours. Ethanol, acetone, and ACN were used as screening solvents. When no precipitation was obtained or only a few solids were obtained, the solutions were placed at 5° C. for crystallization.
(§1) Obtained suspensions were taken out and centrifuged. Solids obtained was analysed by XRPD. Salts with high or medium crystallinity were further characterized (see Table 5).

The next series can be described thus: Crystallinity by XRPD. The format is physicochemical. The following applies: salt screening sample. As to the method: as §1
(§2) According to the salt screening results (see Table 4), totally 19 potential salt hits were identified. All the potential salt hits were further investigated by Differential Scanning Calorimetry (DSC), Thermogravimetric analysis (TGA), H-NMR, Ion chromatography (IC), Karl Fischer titration (KF), and Polarized Light Microscopy (PLM) to confirm their identity and evaluate their physicochemical properties as shown in Table 5 below.

Series [2] can be described thus: Thermogravimetric analysis (TGA) weight loss. The note with it: salt screening sample, at the temperature given (80-200° C.). The format is physicochemical.
Text: as §2

Series [3] is classed as physicochemical. The following applies: salt screening sample.
Text: as §2

Series [4] is described as follows: Solubility of diastereomeric salts in solvents. The format is physicochemical. The note with it: 20 °C, read-out: Solubility @ 20-30° C. The text has this: Thus, in another highly preferred embodiment, DCM is used in step c).
The nature of series [5]: Hygroscopicity (water uptake) of salt hits. The class given is physicochemical. The note with it: salt screening sample; for Hygroscopicity: grade in words.
Text: as §2

The mark [6] stands for this setting: organic solvent or mixture, in Acetone.
Setting [7] is: organic solvent or mixture, in DCM.
Setting [8] is: organic solvent or mixture, in EtOAc.
Where [9] appears, read: organic solvent or mixture, in EtOH.
[10] abbreviates: organic solvent or mixture, in Heptane.
[11] abbreviates: organic solvent or mixture, in IPA.
Where [12] appears, read: organic solvent or mixture, in IPAC.
[13] abbreviates: organic solvent or mixture, in MEK.
[14] abbreviates: organic solvent or mixture, in MTBE.
Where [15] appears, read: organic solvent or mixture, in MeOH.
Setting [16] is: organic solvent or mixture, in THF.
Where [17] appears, read: organic solvent or mixture, in Toluene.

As usually defined, the solubility is the concentration that dissolves in the medium under given conditions.

With Glutamic acid, the “Polymorph obtained in salt screening” value in series [1] (ACN) is “Polymorph C”; in series [1] (EtOH) it was “Polymorph A”. Besides, the Salt screening result in series [1] (ACN), in series [1] (Acetone) and in series [1] (EtOH) was “+” each time.

As for `COc1cc(C(F)(F)F)c(OC)cc1[C@@H]1CCCNC1.N[C@@H](CCC(=O)O)C(=O)O` [L-glutamate salt Polymorph A], the Crystallinity result in the series “Crystallinity by XRPD” is “Low”. In series [2], the “Weight loss (%)” value is reported as 4.8%. The “Water content (% w/w)” value in series [3] is given as 8.6% w/w.

Consider `COc1cc(C(F)(F)F)c(OC)cc1[C@@H]1CCCNC1` [drawing 39, (−)-Di-p-anisoyl-L-tartaric acid salt of (S)-3-(2,5-dimethoxy-4-(trifluoromethyl)phenyl)piperidine (1:1)], for which the solubility in series [4] (organic solvent or mixture, in 2-MeTHF) is 50000 µg/mL; in series [4] (organic solvent or mixture, in ACN), 12000 µg/mL; in series [4] (setting [6]), below 10000 µg/mL; in series [4] (setting [7]) it was below 10000 µg/mL; in series [4] (setting [8]), below 10000 µg/mL; in series [4] (setting [9]) it was 12000 µg/mL. In addition, the solubility in series [4] (setting [10]) is below 10000 µg/mL; in series [4] (setting [11]), below 10000 µg/mL; in series [4] (setting [12]), below 10000 µg/mL; in series [4] (setting [13]), below 10000 µg/mL; in series [4] (setting [14]), below 10000 µg/mL; in series [4] (setting [15]), 30000 µg/mL. In addition, the solubility was 50000 µg/mL in series [4] (setting [16]), below 10000 µg/mL in series [4] (setting [17]) and below 5000 µg/mL in series [4] (in Water).

Take `COc1cc(C(F)(F)F)c(OC)cc1[C@@H]1CCCNC1.N[C@@H](CCC(=O)O)C(=O)O` [L-glutamate salt Polymorph C]: in the series “Crystallinity by XRPD”, the Crystallinity result was “High”. Also, the “Weight loss (%)” value in series [2] was 6.3%. Moreover, in series [3], the “Water content (% w/w)” value came to 8.7% w/w.

Consider `COc1cc(C(F)(F)F)c(OC)cc1[C@@H]1CCCNC1.COc1cc(C(F)(F)F)c(OC)cc1[C@@H]1CCCNC1.O=C(O)/C=C/C(=O)O` [Hemi-fumarate salt Polymorph B], for which, in “Crystallinity by XRPD”, the Crystallinity entry is on record as “Medium”. The “Weight loss (%)” value in series [2] is 9.4%. Also, the “Water content (% w/w)” value in series [3] is 9.3% w/w.

In the case of `COc1cc(C(F)(F)F)c(OC)cc1[C@@H]1CCCNC1.O=C(O)C[C@H](O)C(=O)O` [L-malate salt Polymorph A], the “Polymorph obtained in salt screening” value in series [1] (ACN), in series [1] (Acetone) and in series [1] (EtOH) was “Polymorph A” in each case. Besides, the Salt screening result in series [1] (ACN), in series [1] (Acetone) and in series [1] (EtOH) was “+” each time. Also, the Crystallinity result in “Crystallinity by XRPD” is recorded as “High”. Besides, in series [2], the “Weight loss (%)” value was determined as 2.3%. In series [3], the “Water content (% w/w)” value is recorded as 5.9% w/w. In series [5], the “Hygroscopicity (water uptake % w/w)” value is on record as “(~0.3%) % w/w”.

Consider Gentisic acid, for which the Salt screening result in series [1] (ACN), in series [1] (Acetone) and in series [1] (EtOH) was “Clear solution” in each case.

On to Citric acid, for which the Salt screening result in series [1] (ACN), in series [1] (Acetone) and in series [1] (EtOH) was “Clear solution” each time.

For `COc1cc(C(F)(F)F)c(OC)cc1[C@@H]1CCCNC1.N[C@@H](CCC(=O)O)C(=O)O` [L-glutamate salt Polymorph B], the Crystallinity entry in “Crystallinity by XRPD” is recorded as “Medium”. The “Weight loss (%)” value in series [2] came to 6.6%. Further, in series [3], the “Water content (% w/w)” value turned out to be 6.9% w/w.

Consider `COc1cc(C(F)(F)F)c(OC)cc1[C@@H]1CCCNC1.O=C(O)/C=C/C(=O)O` [Mono-fumarate salt Polymorph C], for which the “Polymorph obtained in salt screening” value in series [1] (ACN), in series [1] (Acetone) and in series [1] (EtOH) was “Polymorph C” in each case. For the same compound, the Salt screening result in series [1] (ACN), in series [1] (Acetone) and in series [1] (EtOH) was “+” each time. Moreover, in the series “Crystallinity by XRPD”, the Crystallinity result is “Medium”. Further, the “Weight loss (%)” value in series [2] stood at 0.6%. For the same compound, the “Hygroscopicity (water uptake % w/w)” value in series [5] is recorded as “(~0.2%) % w/w”.

In the case of `COc1cc(C(F)(F)F)c(OC)cc1[C@@H]1CCCNC1.COc1cc(C(F)(F)F)c(OC)cc1[C@@H]1CCCNC1.O=C(O)CCC(=O)O` [Hemi-succinate salt Polymorph B], in series [1] (ACN), the “Polymorph obtained in salt screening” value is listed as “Polymorph A” and the Salt screening result is reported as “+”. In series [1] (Acetone), the “Polymorph obtained in salt screening” value was “Polymorph A” and the Salt screening result is “+”. Also, in series [1] (EtOH), the “Polymorph obtained in salt screening” value is “Polymorph A” and the Salt screening result is recorded as “+”. Besides, in “Crystallinity by XRPD”, the Crystallinity result is recorded as “Medium”. For the same compound, the “Weight loss (%)” value in series [2] is recorded as 4.8%. Also, in series [5], the “Hygroscopicity (water uptake % w/w)” value was “(~1.8%) % w/w” and the Hygroscopicity result is given as “Hygroscopic”.

For `COc1cc(C(F)(F)F)c(OC)cc1[C@@H]1CCCNC1.COc1cc(C(F)(F)F)c(OC)cc1[C@@H]1CCCNC1.O=C(O)/C=C/C(=O)O` [Hemi-fumarate salt Polymorph A], the Crystallinity result in “Crystallinity by XRPD” is given as “Medium”. Further, in series [2], the “Weight loss (%)” value amounted to 4.8%. Besides, the “Water content (% w/w)” value in series [3] is reported as 5.5% w/w.

Regarding `COc1cc(C(F)(F)F)c(OC)cc1[C@@H]1CCCNC1.O=P(O)(O)O` [Phosphate salt Polymorph A], the values for the Salt screening result in series [1] (ACN), in series [1] (Acetone) and in series [1] (EtOH) were “Hazy solution”, “+” and “Clear solution”, respectively. For the same compound, in series [1] (Acetone), the “Polymorph obtained in salt screening” value is given as “Polymorph A”. The Crystallinity entry in the series “Crystallinity by XRPD” is recorded as “Medium”. The “Weight loss (%)” value in series [2] is reported as 0.7%.

As to `CC(=O)O.COc1cc(C(F)(F)F)c(OC)cc1[C@@H]1CCCNC1` [Acetate salt Polymorph A], the “Polymorph obtained in salt screening” value in series [1] (ACN) and in series [1] (Acetone) was “Polymorph A” each time. The Salt screening result in series [1] (ACN) is recorded as “+”; in series [1] (Acetone), “+”; in series [1] (EtOH) it was “Clear solution”. Also, the Crystallinity entry in the series “Crystallinity by XRPD” was “High”. Moreover, the “Weight loss (%)” value in series [2] is 0.2%. Besides, in series [5], the Hygroscopicity result is listed as “None”.

For `COc1cc(C(F)(F)F)c(OC)cc1[C@H]1CCCNC1` [(−)-Di-p-anisoyl-L-tartaric acid salt of (R)-3-(2,5-dimethoxy-4-(trifluoromethyl)phenyl)piperidine (1:1)], the solubility in series [4] (setting [6]) is below 10000 µg/mL; in series [4] (setting [7]), above 400000 µg/mL; in series [4] (setting [8]), below 10000 µg/mL; in series [4] (setting [9]), 25000 µg/mL; in series [4] (setting [10]) it was below 10000 µg/mL; in series [4] (setting [11]), below 10000 µg/mL. The solubility in series [4] (setting [12]) is below 10000 µg/mL; in series [4] (setting [13]), below 10000 µg/mL; in series [4] (setting [14]) it was below 10000 µg/mL; in series [4] (setting [15]), 40000 µg/mL; in series [4] (setting [16]), 45000 µg/mL; in series [4] (setting [17]) it was below 10000 µg/mL. Moreover, the solubility in series [4] (in Water) was below 5000 µg/mL.

Consider `COc1cc(C(F)(F)F)c(OC)cc1[C@@H]1CCCNC1.C[C@@H](O)C(=O)O` [D-lactate salt Polymorph A], for which the results for the Salt screening result in series [1] (ACN), in series [1] (Acetone) and in series [1] (EtOH) were “Clear solution”, “Thin suspension” and “+”, respectively. Also, the “Polymorph obtained in salt screening” value in series [1] (EtOH) is “Polymorph A”. Besides, the Crystallinity result in “Crystallinity by XRPD” was “High”.

As for `COc1cc(C(F)(F)F)c(OC)cc1[C@@H]1CCCNC1.COc1cc(C(F)(F)F)c(OC)cc1[C@@H]1CCCNC1.O=C(O)C(O)C(O)C(=O)O` [Hemi L-tartrate salt Polymorph A], the “Polymorph obtained in salt screening” value in series [1] (ACN), in series [1] (Acetone) and in series [1] (EtOH) was “Polymorph A” each time. For the same compound, the Salt screening result in series [1] (ACN), in series [1] (Acetone) and in series [1] (EtOH) was “+” throughout. The Crystallinity result in the series “Crystallinity by XRPD” is “Medium”. Also, the “Weight loss (%)” value in series [2] is given as 4.0%.

For `COc1cc(C(F)(F)F)c(OC)cc1[C@@H]1CCCNC1.O=S(=O)(O)O` [Sulfate salt Polymorph A], the “Polymorph obtained in salt screening” value in series [1] (ACN), in series [1] (Acetone) and in series [1] (EtOH) was “Polymorph A” each time. Besides, the Salt screening result in series [1] (ACN), in series [1] (Acetone) and in series [1] (EtOH) was “+” in each case. Besides, the Crystallinity result in the series “Crystallinity by XRPD” was “High”. Also, the “Weight loss (%)” value in series [2] is 8.2%.
